One series deals with T1, 5-HT2CR (Homo sapiens, UniProt P28335).
T1 construct: expressed in transfected cells
T1 sequence (P28335 33-458): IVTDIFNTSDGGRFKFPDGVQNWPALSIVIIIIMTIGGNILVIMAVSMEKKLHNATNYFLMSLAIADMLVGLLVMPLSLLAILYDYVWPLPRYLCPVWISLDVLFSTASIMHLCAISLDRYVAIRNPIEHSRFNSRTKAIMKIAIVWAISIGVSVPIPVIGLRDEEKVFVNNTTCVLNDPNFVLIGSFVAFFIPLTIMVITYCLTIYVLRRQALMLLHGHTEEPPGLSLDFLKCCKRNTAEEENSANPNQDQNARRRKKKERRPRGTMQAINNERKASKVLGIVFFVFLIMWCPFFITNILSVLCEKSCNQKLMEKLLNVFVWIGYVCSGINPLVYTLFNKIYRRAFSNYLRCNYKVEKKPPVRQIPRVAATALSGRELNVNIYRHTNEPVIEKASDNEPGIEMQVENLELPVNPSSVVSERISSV
Briefly: 5-HT-evoked Cai2+ release in vitro. The format is cell-based. To be noted: highest concentration tested in vitro (10 μM). From the text:
General Method for In Vitro Pharmacological Assessment of Compounds of the Invention. The Chinese hamster ovary (CHO) cell lines stably transfected with human unedited (INI) h5-HT2CR (h5-HT2CR—CHO cells) or the human h5-HT2AR (h5-HT2AR—CHO cells) were a generous gift of K. Berg and W. Clarke (University of Texas Health Science Center, San Antonio, TX) (Berg et al., Molecular Pharmacology, 46:477-484, 1994; Ding et al., ACS Chemical Neuroscience, 3:538-545, 2012). […] Changes in Cai^2+ levels were determined using the calcium sensitive dye Calcium 4 or Calcium 6 (FLIPR No-wash kit, Molecular Devices, Sunnyvale, CA). […] The fluorescence readings were then adopted to evaluate the allosteric modulation of 5-HT-induced Cai^2+ release. FlexStation 3 or FLIPR^TETRA was used to measure fluorescence. For FlexStation 3, a 17 s baseline was established before the compound was added, and fluorescence was recorded every 1.7 s thereafter for 240 s. The maximum peak height of each well was determined by SoftMax software (Pro 5.4.5). For FLIPR^TETRA, a 10 s baseline was established before adding the compound, and then record the fluorescence every 1 s for 120 s after the compound or 360 s after 5-HT. The maximum peak height of each well was determined by ScreenWorks 4.0 software. After the final reading, the cells were fixed in 2% paraformaldehyde (Sigma) overnight. […]
On to `CCCCCCCCCCC[C@@H]1CCN[C@H](C(=O)N[C@@H]([C@H]2O[C@H](SC)[C@H](O)[C@@H](O)[C@H]2O)[C@H](C)Cl)C1.Cl` [PNU-69176E], for which the agonist-like properties result is “agonist-like properties observed”.

The same series, now with this note: profile of a 5-HT2CR PAM.
Regarding `CCCCCCCCCCC[C@@H]1CCN[C@H](C(=O)N[C@@H]([C@H]2O[C@H](SC)[C@H](O)[C@@H](O)[C@H]2O)[C@H](C)Cl)C1.Cl` [PNU-69176E], the “5-HT-evoked Cai2+ release” value is recorded as “potentiated”.

Test system in the next series: not listed separately
Briefly: Solubility of representative compounds (Table 1). Type of series: physicochemical. To be noted: solvents listed.
As for “N,N-bis(2-hydroxyethyl)-4-phenethylpiperidine-2-carboxamide [AB0128]”, the Solubility entry is listed as “EtOH, DMSO”.
Still for that read-out and setting: as for “N-(2-(2-hydroxyethoxy)ethyl)-4-phenethylpiperidine-2-carboxamide [AB0136]”, the entry is “EtOH, DMSO”; as for “N-(azetidin-3-yl)-4-phenethylpiperidine-2-carboxamide [AB0121]”, “EtOH, DMSO”.
As for “N-((2R,3R)-1,3-dihydroxybutan-2-yl)-4-phenethylpiperidine-2-carboxamide [AB0126]”, the Solubility result is listed as “EtOH, DMSO”.
Regarding “N-(2-(dimethylamino)ethyl)-4-phenethylpiperidine-2-carboxamide [AB0124]”, the Solubility result is “EtOH, DMSO”.
The same measure, in the same setting: the value for “N-(2-hydroxyethyl)-4-phenethylpiperidine-2-carboxamide [AB0123]” was “EtOH, DMSO”; that for “N-((2S,3S)-1,3-dihydroxybutan-2-yl)-4-phenethylpiperidine-2-carboxamide [AB0125]” was “EtOH, DMSO”; that for “4-phenethyl-N-(2-(piperazin-1-yl)ethyl)piperidine-2-carboxamide [AB0131]” was “EtOH, DMSO”.
“N-((1S,2S)-1,3-dihydroxy-1-(4-(methylthio)phenyl)propan-2-yl)-4-phenethylpiperidine-2-carboxamide [AB0135]”: the Solubility result is on record as “EtOH, DMSO”.
For “N-(3-morpholinopropyl)-4-phenethylpiperidine-2-carboxamide [AB0145]”, the Solubility entry is on record as “EtOH, DMSO”.
For “N-(2-methoxyethyl)-4-phenethylpiperidine-2-carboxamide [AB0122]”, the Solubility entry is “EtOH, DMSO”.
The same measure, in the same setting: as for “N-(2-(1,1-dioxidothiomorpholino)ethyl)-4-phenethylpiperidine-2-carboxamide [AB0132]”, the entry is “EtOH, DMSO”; as for “N-(2-hydroxyethyl)-N-methyl-4-phenethylpiperidine-2-carboxamide [AB0127]”, “EtOH, DMSO”.
The same measure, in the same setting: the value for “N-(2-(4-methylpiperazin-1-yl)ethyl)-4-phenethylpiperidine-2-carboxamide [AB0146]” was “EtOH, DMSO”.

The values above are taken from US20240360100A1, “HETEROCYCLIC COMPOUNDS AS SEROTONIN (5-HT) 5-HT2A AND 5-HT2C RECEPTOR POSITIVE ALLOSTERIC MODULATORS” (The Board of Regents of The University of Texas System, priority 2021, published 2024).
